Test results from patent publication US20150045284A1 (priority 2011, published 2015).

Assays:
[1] = target: LpCopA (Legionella pneumophila Cu^+ transporting P-type ATPase) (Legionella pneumophila subsp. pneumophila, UniProt Q5ZWR1); conditions: for Measured LpCopA activity in the presence of different ions (relative ATPase activity): 100 μM CuCl2 or AgNo3, 1 mg/mL E. coli total lipid extract, 20 mM cysteine, TTM background subtracted
HMBD-truncated LpCopA = HMBD-truncated LpCopA (Legionella pneumophila subsp. pneumophila, UniProt Q5ZWR1)
Sequence of HMBD-truncated LpCopA (Q5ZWR1 75-736 limits assumed): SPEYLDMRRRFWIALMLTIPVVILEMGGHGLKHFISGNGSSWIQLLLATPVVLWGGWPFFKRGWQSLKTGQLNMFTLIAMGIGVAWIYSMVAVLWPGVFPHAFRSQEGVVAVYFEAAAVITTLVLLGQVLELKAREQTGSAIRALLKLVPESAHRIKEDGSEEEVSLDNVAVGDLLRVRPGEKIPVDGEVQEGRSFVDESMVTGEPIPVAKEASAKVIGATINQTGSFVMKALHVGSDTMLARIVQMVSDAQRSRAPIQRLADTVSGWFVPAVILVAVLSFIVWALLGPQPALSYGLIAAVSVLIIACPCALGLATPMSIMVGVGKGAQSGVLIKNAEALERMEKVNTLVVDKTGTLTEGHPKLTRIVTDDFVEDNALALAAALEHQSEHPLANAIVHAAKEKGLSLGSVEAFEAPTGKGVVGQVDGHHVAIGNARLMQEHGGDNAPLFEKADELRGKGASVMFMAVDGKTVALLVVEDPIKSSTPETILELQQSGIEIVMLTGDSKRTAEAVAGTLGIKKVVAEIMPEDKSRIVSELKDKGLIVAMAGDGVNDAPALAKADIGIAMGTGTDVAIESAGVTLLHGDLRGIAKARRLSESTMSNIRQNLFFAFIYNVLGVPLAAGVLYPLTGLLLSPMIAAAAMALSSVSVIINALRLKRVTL

Sequence of LpCopA (Legionella pneumophila Cu^+ transporting P-type ATPase) (Q5ZWR1 whole entry, looked up, the tested form may be a part): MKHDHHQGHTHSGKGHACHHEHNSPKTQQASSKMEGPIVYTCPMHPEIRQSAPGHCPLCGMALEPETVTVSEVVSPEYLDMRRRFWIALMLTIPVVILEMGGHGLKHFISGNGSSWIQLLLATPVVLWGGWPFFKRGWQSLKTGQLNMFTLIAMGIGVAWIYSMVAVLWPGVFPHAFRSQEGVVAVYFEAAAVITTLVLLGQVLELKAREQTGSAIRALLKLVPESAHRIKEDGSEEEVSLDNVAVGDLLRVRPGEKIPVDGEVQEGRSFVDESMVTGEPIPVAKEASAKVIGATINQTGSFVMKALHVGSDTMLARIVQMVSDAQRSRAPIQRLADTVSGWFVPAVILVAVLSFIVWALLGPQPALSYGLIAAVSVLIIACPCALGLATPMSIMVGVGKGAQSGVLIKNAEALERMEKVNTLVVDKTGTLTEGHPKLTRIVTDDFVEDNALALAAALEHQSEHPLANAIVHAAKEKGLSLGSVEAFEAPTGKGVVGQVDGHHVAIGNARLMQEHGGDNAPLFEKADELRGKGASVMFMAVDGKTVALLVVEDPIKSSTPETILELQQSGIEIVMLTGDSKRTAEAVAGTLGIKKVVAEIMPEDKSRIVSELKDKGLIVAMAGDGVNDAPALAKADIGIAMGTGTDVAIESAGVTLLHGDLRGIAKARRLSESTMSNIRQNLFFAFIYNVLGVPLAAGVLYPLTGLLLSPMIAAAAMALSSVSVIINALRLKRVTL

Structure (SMILES)	Measured LpCopA activity in the presence of different ions (relative ATPase activity) [1]	CuCl2 concentration of optimum ATPase activity (HMBD-truncated LpCopA)	CuCl2 concentration of highest ATPase activity ([1]; full-length LpCopA, 10 nM to 10 mM CuCl2 incl. 10 μM TTM, appears inhibited above)
[Cu+] [Cu^+]	clearly stimulate ATPase activity	–	–
[Ag+] [Ag^+]	clearly stimulate ATPase activity	–	–
[Cl][Cu][Cl] [CuCl2]	–	about 1 mM	1 mM
